Reference: patent US20260027068A1, “METHODS OF ADM[…]-KETAMINE” (Perception Neuroscience, Inc., priority 2022, published 2026)

Test: Respiratory rate (vital signs)
Details: 30 mg
Experimental: The Investigational Medicinal Product (IMP) R(−)-ketamine hydrochloride in sterile water for intravenous injection was investigated as an […] treatment of TRD. The International Union of Pure and Applied Chemistry (IUPAC) name is of the IMP is (2R)-2-(2-chlorophenyl)-2-(methylamino)cyclohexan-1-one. Subjects received the solution at either 30 mg or 60 mg dose, or a placebo. The IMP or placebo was administered on Day 1 as a single IV infusion via an electronic infusion pump over 40 minutes. The duration of study participation for each subject was up to 29 days including a screening period, a 3-day in-clinic visit, and 2 follow-up visits. 101 subjects were enrolled in approximately 20 study centers in the EU and the US.
Tympanic or temporal temperature, heart rate, blood pressure (SBP/DBP), respiratory rate, and SpO2 were assessed. Blood pressure and pulse measurements will be assessed with a completely automated device while the subject is supine or semi-supine. Manual techniques will be used only if an automated device is not available. Blood pressure and pulse measurements should be preceded by at least 5 minutes of rest for the subject in a quiet setting without distractions (e.g., television, cell phones). An abnormal blood pressure value at screening may be repeated once after 5 minutes of relaxation to determine the subject's eligibility. Blood pressure was recorded using the same arm and position (supine or semi-supine) throughout the study, where possible. Vital signs (to be taken before blood collection for laboratory tests) consisted of 1 pulse and 3 blood pressure measurements (3 consecutive blood pressure readings will be recorded at intervals of at least 1 minute). The average of the 3 blood pressure readings was recorded in the CRF. A pulse oximeter was used to measure peripheral capillary oxygen saturation (SpO2) continuously from pre-dose until 4-hours post-dose. A pulse oximeter was clipped onto the finger or foot of the subject, and light will be sent through the finger or foot and measured on the other side.
In these tables, baseline value is defined as the last non-missing value prior to study drug administration.

Structure (SMILES): CN[C@@]1(c2ccccc2Cl)CCCCC1=O.Cl [R(−)-ketamine, (2R)-2-(2-chlorophenyl)-2-(methylamino)cyclohexan-1-one]
- Respiratory Rate, Max (Day 1, 15 minutes): 22 breaths/minute
- Respiratory Rate, Mean (Day 1, 15 minutes): 16.0 breaths/minute
- Respiratory Rate, Median (Day 1, 15 minutes): 16.0 breaths/minute
- Respiratory Rate, Min (Day 1, 15 minutes): 14 breaths/minute
- Respiratory Rate, Max (Day 1, 40 minutes): 18 breaths/minute
- Respiratory Rate, Mean (Day 1, 40 minutes): 15.7 breaths/minute
- Respiratory Rate, Median (Day 1, 40 minutes): 16.0 breaths/minute
- Respiratory Rate, Min (Day 1, 40 minutes): 13 breaths/minute
- Respiratory Rate, Max (Day 1, 60 minutes): 17 breaths/minute
- Respiratory Rate, Mean (Day 1, 60 minutes): 15.4 breaths/minute
- Respiratory Rate, Median (Day 1, 60 minutes): 15.5 breaths/minute
- Respiratory Rate, Min (Day 1, 60 minutes): 14 breaths/minute
- Respiratory Rate, Max (Day 1, 2 hours): 18 breaths/minute
- Respiratory Rate, Mean (Day 1, 2 hours): 15.9 breaths/minute
- Respiratory Rate, Median (Day 1, 2 hours): 16.0 breaths/minute
- Respiratory Rate, Min (Day 1, 2 hours): 13 breaths/minute
- Respiratory Rate, Max (Day 1, 4 hours): 21 breaths/minute
- Respiratory Rate, Mean (Day 1, 4 hours): 16.1 breaths/minute
- Respiratory Rate, Median (Day 1, 4 hours): 16.0 breaths/minute
- Respiratory Rate, Min (Day 1, 4 hours): 14 breaths/minute
- Respiratory Rate, Max (Day 1, 6 hours): 18 breaths/minute
- Respiratory Rate, Mean (Day 1, 6 hours): 15.9 breaths/minute
- Respiratory Rate, Median (Day 1, 6 hours): 16.0 breaths/minute
- Respiratory Rate, Min (Day 1, 6 hours): 14 breaths/minute
- Respiratory Rate, Max (Day 2 - Discharge): 21 breaths/minute
- Respiratory Rate, Mean (Day 2 - Discharge): 15.9 breaths/minute
- Respiratory Rate, Median (Day 2 - Discharge): 16.0 breaths/minute
- Respiratory Rate, Min (Day 2 - Discharge): 14 breaths/minute
- Respiratory Rate, Max (Day 8): 18 breaths/minute
- Respiratory Rate, Mean (Day 8): 15.9 breaths/minute
- Respiratory Rate, Median (Day 8): 16.0 breaths/minute
- Respiratory Rate, Min (Day 8): 14 breaths/minute
- Respiratory Rate, Max (Day 15): 18 breaths/minute
- Respiratory Rate, Mean (Day 15): 15.7 breaths/minute
- Respiratory Rate, Median (Day 15): 16.0 breaths/minute
- Respiratory Rate, Min (Day 15): 14 breaths/minute
- Respiratory Rate, Change from Baseline, Max (to Day 1, 15 minutes): 3 breaths/minute
- Respiratory Rate, Change from Baseline, Mean (to Day 1, 15 minutes): 0.1 breaths/minute
- Respiratory Rate, Change from Baseline, Median (to Day 1, 15 minutes): 0.0 breaths/minute
- Respiratory Rate, Change from Baseline, Min (to Day 1, 15 minutes): −3 breaths/minute
- Respiratory Rate, Change from Baseline, Max (to Day 1, 40 minutes): 2 breaths/minute
- Respiratory Rate, Change from Baseline, Mean (to Day 1, 40 minutes): −0.2 breaths/minute
- Respiratory Rate, Change from Baseline, Median (to Day 1, 40 minutes): 0.0 breaths/minute
- Respiratory Rate, Change from Baseline, Min (to Day 1, 40 minutes): −5 breaths/minute
- Respiratory Rate, Change from Baseline, Max (to Day 1, 60 minutes): 3 breaths/minute
- Respiratory Rate, Change from Baseline, Mean (to Day 1, 60 minutes): −0.4 breaths/minute
- Respiratory Rate, Change from Baseline, Median (to Day 1, 60 minutes): 0.0 breaths/minute
- Respiratory Rate, Change from Baseline, Min (to Day 1, 60 minutes): −5 breaths/minute
- Respiratory Rate, Change from Baseline, Max (to Day 1, 2 hours): 3 breaths/minute
- Respiratory Rate, Change from Baseline, Mean (to Day 1, 2 hours): −0.1 breaths/minute
- Respiratory Rate, Change from Baseline, Median (to Day 1, 2 hours): 0.0 breaths/minute
- Respiratory Rate, Change from Baseline, Min (to Day 1, 2 hours): −2 breaths/minute
- Respiratory Rate, Change from Baseline, Max (to Day 1, 4 hours): 2 breaths/minute
- Respiratory Rate, Change from Baseline, Mean (to Day 1, 4 hours): 0.2 breaths/minute
- Respiratory Rate, Change from Baseline, Median (to Day 1, 4 hours): 0.0 breaths/minute
- Respiratory Rate, Change from Baseline, Min (to Day 1, 4 hours): −2 breaths/minute
- Respiratory Rate, Change from Baseline, Max (to Day 1, 6 hours): 2 breaths/minute
- Respiratory Rate, Change from Baseline, Mean (to Day 1, 6 hours): −0.0 breaths/minute
- Respiratory Rate, Change from Baseline, Median (to Day 1, 6 hours): 0.0 breaths/minute
- Respiratory Rate, Change from Baseline, Min (to Day 1, 6 hours): −3 breaths/minute
- Respiratory Rate, Change from Baseline, Max (to Day 2 - Discharge): 1 breaths/minute
- Respiratory Rate, Change from Baseline, Mean (to Day 2 - Discharge): −0.1 breaths/minute
- Respiratory Rate, Change from Baseline, Median (to Day 2 - Discharge): 0.0 breaths/minute
- Respiratory Rate, Change from Baseline, Min (to Day 2 - Discharge): −4 breaths/minute
- Respiratory Rate, Change from Baseline, Max (to Day 8): 3 breaths/minute
- Respiratory Rate, Change from Baseline, Mean (to Day 8): −0.1 breaths/minute
- Respiratory Rate, Change from Baseline, Median (to Day 8): 0.0 breaths/minute
- Respiratory Rate, Change from Baseline, Min (to Day 8): −5 breaths/minute
- Respiratory Rate, Change from Baseline, Max (to Day 15): 1 breaths/minute
- Respiratory Rate, Change from Baseline, Mean (to Day 15): −0.3 breaths/minute
- Respiratory Rate, Change from Baseline, Median (to Day 15): 0.0 breaths/minute
- Respiratory Rate, Change from Baseline, Min (to Day 15): −6 breaths/minute
